Measurements: article PMC7456892 (Frontiers in Plant Science, 2020)
“Also recorded” adds a separate entry of the source. Where no end group is shown, it is not given here.

Key:
[1] = test system: pepsin; assay: SGF (200 mg NaCl, 10 units pepsin/µg test protein, pH 1.2); settings: 37°C, up to 60 min
[2] = test system: C. graminicola; assay type: cell-based, Colletotrichum graminicola isolate Carroll-1A-99; settings: growth assay, 25°C, dark, 40 h, OD 595 nm
[3] = molecular target: pepsin (Sus scrofa, UniProt P00791); assay: Simulated Gastric Fluid (SGF) pepsin digestion assay; assay type: in vitro ADME; settings: pH 1.2
Procedure: Protein samples were analyzed for degradation by SDS PAGE followed by staining with RAPIDStain (Calbiochem) for 1 h after intense washing with ultrapure water. Digestion products from the SGF assays were analyzed by Matrix-assisted laser desorption/ionization time of flight (MALDI TOF) mass spectrometry. Samples were pre-incubated with 0.5 μl of 40 mM DTT for 20 min on the ground steel plate to reduce disulfide bonds. The samples were subsequently mixed with 2,5-dihydroxybenzoic acid (DHB) and the mass to charge ratio was measured for each sample using a Bruker Daltonics Ultraflex III MALDI-TOF/TOF Mass Spectrometer.

[4] = test system: trypsin (pancreatin)
Procedure: Aliquots (320 µl) of each of SIF (60 mM KH2PO4, pH 7.5, 12 mg/ml pancreatin), SIF minus pancreatin and ultrapure water were added to individual glass vials with stir bars on a submersible stir plate (2mag MIX drive, Sigma Aldrich) in a 37°C water bath for 2 min before the addition of 40 µl of test protein (5 mg/ml) to each vial. Azoalbumin (A-2382, Sigma Aldrich) at a final concentration of 10 mg/ml in ultrapure water was used as the positive control for protease digestion. Protein degradation was assessed by SDS PAGE as described above.

[5] = test system: F. graminearum; assay type: cell-based, Fusarium graminearum isolate 73B1A; settings: growth assay, 25°C, dark, 24 h, OD 595 nm
[6] = test system: pancreatin; settings: 37°C, up to 60 min

Sequence of pepsin (Sus scrofa, UniProt P00791) (P00791 60-385): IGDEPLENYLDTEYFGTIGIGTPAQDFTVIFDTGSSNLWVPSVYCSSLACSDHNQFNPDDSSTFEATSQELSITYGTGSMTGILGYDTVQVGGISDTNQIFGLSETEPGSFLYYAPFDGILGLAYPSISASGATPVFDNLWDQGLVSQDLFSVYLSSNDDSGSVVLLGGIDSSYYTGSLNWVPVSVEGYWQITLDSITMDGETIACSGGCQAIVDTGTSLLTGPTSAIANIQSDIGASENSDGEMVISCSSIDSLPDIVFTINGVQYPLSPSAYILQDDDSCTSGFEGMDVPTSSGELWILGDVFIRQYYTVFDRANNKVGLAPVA

Row | Substance | not cleaved [1] | cleaved bond [1] | further results
1 | KDCLTRRHGFQGRCLFDRQCAHVCRSDGFIGGQCRGPLRKCFCSRPC | stable in the SGF assay for more than 60 min | – | –
2 | NaD1-C3S-C47S: NaD1 variant lacking the Cys3-Cys47 (fourth) disulfide bond (RESKTESNTFPGICITKPPCRKACISEKFTDGHCSKILRRCLCTKPS; not fully specified; ends and bridges not checked; UniProt Q8GTM0 26-72, looked up, variant C3S C47S) | – | – | Antifungal activity against C. graminicola compared with wild type defensin, in words [2]: as active as unmodified NaD1; Digestion in SGF, result in words [3]: partially digested; Size of peptides after digestion in SIF [4]: less than 2300 Da; Antifungal activity against F. graminearum compared with wild type defensin, in words [5]: as active as unmodified NaD1
3 | NaD1: class II plant defensin from the ornamental tobacco Nicotiana alata, purified from flowers (RECKTESNTFPGICITKPPCRKACISEKFTDGHCSKILRRCLCTKPC; ends and bridges not checked; cysteine pairing not given here; UniProt Q8GTM0 26-72, looked up) | – | – | Mass of fragments Da at 60 min [3]: 5296 Da
4 | RECKTESHRFKGPCITKPPCRKACISEFFTDGHCSKILRRCLCTKPC | – | F28-F29, 10 min; also recorded: T16-K17, 10 min | –
5 | RECKTESHRFKGPCITKPPCRKACISEKFTDGHCSKILRRCLCTKPC | not degraded in SGF (60 min) | – | –
6 | RECKTESNTFPGICITKPPCRKACISEKFTDGHCSKILRRCLCTKPC | stable in the SGF assay for more than 60 min; also recorded: not cleaved | – | not cleaved [6]: not digested by SIF (60 min)
7 | RECKTESRAFALECITKPPCRKACISEKFTDGHCSKILRRCLCTKPC | – | A9-F10, 60 min | –
8 | RESKTESRAFALECITKPPCRKACISEFFTDGHCSKILRRCLCTKPS | – | A9-F10, within 1 minute; also recorded: F28-F29, within 1 minute | –
